Measured values taken from US10150793B2, “Antagonists of CB1 receptor” (INSERM (Institut National de la Santé et de la Recherche …, priority 2011, dated 2018).

Key:
[1] = Allopregnanolone and epiallopregnanolone in nucleus accumbens after high dose injection (GC/MS); format: in vivo, Wistar rats; settings: 50 mg/kg; 30 min after the injections
Experimental: The capacity of a compound of the invention to be or not to be converted into active pregnenolone downstream derivatives may be evaluated by administering this compound, for example by injecting 50 mg/kg, to a rat, sacrificing the rat 30 min later, measuring the concentration of allopregnanolone and epiallopregnanolone in nucleus accumbens of rat by GC/MS and comparing these concentrations to allopregnanolone and epiallopregnanolone in a rat whose has been injected only a vehicle or pregnenolone.
The concentrations of allopregnanolone and epiallopregnanolone were measured in nucleus accumbens of individual animal by GC/MS 30 min after the injections.

[2] = Brain steroid levels after pregnenolone injections; format: in vivo, C57B1/6 mice; settings: pregnenolone injections between 2 and 8 mg/kg
Experimental: Data are expressed as mean±SEM (n=7-8 per group). *=P<0.05, ***=P<0.001 compared to vehicle-treated animals (PREG 0 mg/kg).
In this example the inventors studied the effects of the doses of pregnenolone (between 2 and 8 mg/kg) that were able to inhibit the effects of CB1 activation in mice.

GABA-A receptors = test: GABA-A receptors-mediated mIPSC in nucleus accumbens principal neurons; format: cell-based, mouse
Experimental: GABA-A receptors-mediated currents: mIPSC were recorded in the presence of the AMPAR and NMDAR antagonists (DNQX 20 μM and AP-5 50 μM, respectably). mEPSC-mIPSC analysis: Typically, after breaking in, cells were left to equilibrate for 20 minutes and the subsequent 10 minutes recording of mEPSC-mIPSC was used to analysis. mEPSC-mIPSC were detected using a template generated from averaging several typical events (Clampfit 10, Molecular Devices). The template was slid along the data trace one point at a time. At each position, the template was optimally scaled and offset to fit the data. A lower-amplitude threshold of 7 pA and 10 pA were applied for mEPSC and mIPSC, respectably, equivalent to 2.5SD of baseline noise. For each cell, the kinetics of mEPSC-mIPSC was measured from the average event using Clampfit 10. To estimate decay times, a two exponentials curve was fitted between 5 and 95% of the decay phase of the current given by the following equation: y(t)=A1·e^(−t/τ1)+A2·e^(−t/τ2), where A is the amplitude, t is the time and τ is the decay time constant. The weighted tau was then calculated.
In order to evaluate the effect of pregnenolone on the function of post-synaptic GABA we recorded mIPSC and compared its amplitude and decay time between groups. We observed that mIPSC amplitude and decay time were similar between controls (amplitude: 17.9±0.8 pA; decay time: 11.1±0.3 ms) and slices pre-treated with pregnenolone (100 nM and 1 μM, respectively; amplitude: 17.3±0.4 pA, 15.9±0.4 pA; decay time: 10.2±0.4 ms, 10.8±0.5 ms).

[3] = Elevated plus maze, anxiety-like behaviors; format: in vivo, mice; settings: sc, 30 min before test; pregnenolone 1, 6, 10 mg/kg; rimonabant 10 mg/kg
Experimental: The elevated plus maze was made by a central platform (10×10 cm) from which departed 4 arms (45×10 cm) at a 90° angle from each other. Two opposite arms, named closed arms had peripheral wall 50 cm high. The two other arms, named open arms had no walls. The maze was suspended at 66 cm from the floor of the room and was brightly lighted (120 lux). The testing consisted in placing the animal in the central platform and the number of entry and the time spent in each compartment of the maze recorded for 5 min. The number of entry and time spent in the open arms are considered and index of anxiety-like behaviors, whilst the total number of entry are and index of locomotor activity.
One of the major side effects of orthosteric antagonists of the CB1 is the induction of behavioral side effect and in particular an axiodepressive state. […] This test has been chosen because an increase in anxiety was the principal undesirable side effect of this compound in humans.

For `CC(=O)[C@H]1CC[C@H]2[C@@H]3CC=C4C[C@@H](O)CC[C@]4(C)[C@H]3CC[C@]12C` [Pregnenolone, 5-Pregnen-3β-ol-20-one], the “production of allopregnanolone and epiallopregnanolone in nucleus accumbens” value [1] was “allopregnanolone and epiallopregnanolone increased”, the “brain concentrations of downstream metabolites (epiallopregnanolone, allopregnanolone)” value [2] was “did not modify the concentrations of downstream metabolites” and the “brain levels of pregnenolone” value [2] was “increased brain levels of pregnenolone”. It also gave a mIPSC amplitude (GABA-A receptors; slices pre-treated with 100 nM) of 17.3±0.4 pA, a mIPSC decay time (GABA-A receptors; slices pre-treated with 100 nM) of 10.2 ± 0.4 ms and a mIPSC amplitude (GABA-A receptors; slices pre-treated with 1 μM) of 15.9±0.4 pA. The mIPSC decay time (GABA-A receptors; slices pre-treated with 1 μM) was 10.8 ± 0.5 ms and the “anxiety-like behavior (entries and time spent in open arms)” value [3] was “induced no increase in anxiety”.
